Test results reported in patent publication US20140039044A1, “Hydroxylated Polymethoxyflavone Compositions” (WLLGEN, INC., priority 2006, published 2014).
Read-outs that look alike come from different tables or passages of the source.

What was measured:
Assay type in all cases: cell-based, human
AGS cells [1] = assay: Cell cycle distribution by flow cytometry; conditions: 24 h, Table 11
Method in brief: (§1)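 Human cancer cells (2×10^5 per dish) exposed 24 h to compound at 5–100 μM, or DMSO. Cells ethanol-fixed at −20° C overnight, RNase/Triton-treated at 37° C for 30 min, then stained with propidium iodide. DNA content read by FACScan flow cytometry to give phase distribution.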

COLO205 cells [2] = assay: Cell cycle distribution by flow cytometry; conditions: 24 h; for Cell Cycle Distribution G0/G1 / Cell Cycle Distribution G2/M / Cell Cycle Distribution S: COLO205 cells, Table 12
Method in brief: as §1

HT-29 cells = assay: Apoptotic ratio by propidium iodide flow cytometry (AC50); conditions: Homo sapiens, read-out: Apoptosis-inducing AC50
Method in brief: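 HT-29 cells (2×10^5) were treated with compound for 24 h, then fixed in ice-cold ethanol overnight and treated with Triton X-100/RNase at 37 °C for 30 min. They were stained with propidium iodide (50 μg/mL solution) on ice for 30 min. The apoptotic fraction was measured from PI-DNA fluorescence by flow cytometry, and AC50 was reported.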

HL-60 cells [3] = assay: as above; conditions: Homo sapiens
Method in brief: (§2)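 AC50 denotes the concentration that induces 50% apoptosis. It was derived from propidium iodide–DNA fluorescence measured by flow cytometry after ethanol fixation and RNase treatment. Cells were seeded at 2×10^5, grown 24 h, then exposed to test compounds for 24 h.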

AGS cells [4] = assay: as above; conditions: Homo sapiens, read-out: Apoptosis-inducing AC50
Method in brief: as §2

COLO205 cells [5] = assay: as above; conditions: Homo sapiens
Method in brief: as §2

HL-60 cells [6] = assay: Cell survival assay (antiproliferative IC50); conditions: Homo sapiens
AGS cells [7] = assay: Cell survival assay (antiproliferative IC50); conditions: Homo sapiens, read-out: Antiproliferative IC50
COLO205 cells [8] = assay: Cell survival assay (antiproliferative IC50); conditions: Homo sapiens

| SMILES | Cell Cycle Distribution G0/G1 (AGS cells [1]; 5 μM) | Cell Cycle Distribution G2/M (AGS cells [1]; 5 μM) | Cell Cycle Distribution S (AGS cells [1]; 5 μM) | Cell Cycle Distribution G0/G1 (AGS cells [1]; 10 μM) | Cell Cycle Distribution G2/M (AGS cells [1]; 10 μM) | Cell Cycle Distribution S (AGS cells [1]; 10 μM) | Cell Cycle Distribution G0/G1 (AGS cells [1]; 25 μM) | Cell Cycle Distribution G2/M (AGS cells [1]; 25 μM) | Cell Cycle Distribution S (AGS cells [1]; 25 μM) | Cell Cycle Distribution G0/G1 (AGS cells [1]; 50 μM) | Cell Cycle Distribution G2/M (AGS cells [1]; 50 μM) | Cell Cycle Distribution S (AGS cells [1]; 50 μM) | Cell Cycle Distribution G0/G1 (AGS cells [1]; 100 μM) | Cell Cycle Distribution G2/M (AGS cells [1]; 100 μM) | Cell Cycle Distribution S (AGS cells [1]; 100 μM) | Cell Cycle Distribution G0/G1 (COLO205 cells [2]; 5 μM) | Cell Cycle Distribution G2/M (COLO205 cells [2]; 5 μM) | Cell Cycle Distribution S (COLO205 cells [2]; 5 μM) | Cell Cycle Distribution G0/G1 (COLO205 cells [2]; 10 μM) | Cell Cycle Distribution G2/M (COLO205 cells [2]; 10 μM) | other results |
| --- | --- | --- | --- | --- | --- | --- | --- | --- | --- | --- | --- | --- | --- | --- | --- | --- | --- | --- | --- | --- | --- |
| COc1ccc(-c2cc(=O)c3c(OC)c(OC)c(OC)c(OC)c3o2)cc1O [I, 3′-hydroxy-5,6,7,8,4′-pentamethoxyflavone] | 57.25 ± 0.28 | 16.01 ± 0.21 | 26.74 ± 0.49 | 58.27 ± 0.96 | 17.94 ± 1.07 | 23.79 ± 2.03 | 49.07 ± 1.22 | 16.15 ± 0.69 | 34.79 ± 1.90 | 62.72 ± 1.27 | 0.59 ± 0.74 | 36.70 ± 2.00 | 69.35 ± 0.70 | 12.65 ± 0.84 | 18.01 ± 0.14 | 64.51 ± 1.26 | 6.46 ± 0.35 | 29.03 ± 1.61 | 64.14 ± 1.71 | 5.54 ± 0.41 | Cell Cycle Distribution S (COLO205 cells [2]; 10 μM): 30.32 ± 1.30; Cell Cycle Distribution G0/G1 (COLO205 cells [2]; 25 μM): 67.09 ± 0.57; Cell Cycle Distribution G2/M (COLO205 cells [2]; 25 μM): 5.43 ± 1.17; Cell Cycle Distribution S (COLO205 cells [2]; 25 μM): 27.48 ± 0.62; Cell Cycle Distribution G0/G1 (COLO205 cells [2]; 50 μM): 68.03 ± 1.51; Cell Cycle Distribution G2/M (COLO205 cells [2]; 50 μM): 4.83 ± 1.48; Cell Cycle Distribution S (COLO205 cells [2]; 50 μM): 27.15 ± 0.04; Cell Cycle Distribution G0/G1 (COLO205 cells [2]; 100 μM): 83.31 ± 1.06; Cell Cycle Distribution G2/M (COLO205 cells [2]; 100 μM): 0.02 ± 0.02; Cell Cycle Distribution S (COLO205 cells [2]; 100 μM): 16.68 ± 1.04; Cell cycle arrest, in words (COLO205 cells [2]; COLO 205 cells, compound A 50 μM, compound I 100 μM): trends in G1 arrest; AC50 (HT-29 cells): > 100 µM; AC50 (HL-60 cells [3]; HL-60, read-out: Apoptosis-inducing AC50): 94.6 ± 1.5 µM; AC50 (AGS cells [4]; AGS): > 100 µM; AC50 (COLO205 cells [5]; COLO 205, read-out: Apoptosis-inducing AC50): > 100 µM; IC50 (HL-60 cells [6]; HL-60, read-out: Antiproliferative IC50): 52.72 ± 0.22 µM; IC50 (AGS cells [7]; AGS): 65.75 ± 0.41 µM; IC50 (COLO205 cells [8]; COLO 205, read-out: Antiproliferative IC50): 76 ± 1.88 µM |
| COc1ccc(-c2cc(=O)c3c(O)c(OC)c(OC)c(OC)c3o2)cc1OC [J, 5-hydroxy-6,7,8,3′,4′-pentamethoxyflavone] | 58.65 ± 1.77 | 13.51 ± 1.20 | 27.84 ± 0.56 | 57.07 ± 1.02 | 13.84 ± 0.52 | 29.09 ± 1.54 | 58.84 ± 4.84 | 14.00 ± 4.20 | 27.17 ± 0.64 | 52.82 ± 3.22 | 15.74 ± 0.11 | 31.45 ± 3.31 | 58.11 ± 1.11 | 12.71 ± 0.25 | 29.24 ± 1.28 | 56.75 ± 1.52 | 7.41 ± 0.30 | 35.85 ± 1.22 | 59.63 ± 0.88 | 7.07 ± 0.86 | Cell Cycle Distribution S (COLO205 cells [2]; 10 μM): 31.99 ± 1.85; Cell Cycle Distribution G0/G1 (COLO205 cells [2]; 25 μM): 63.97 ± 0.56; Cell Cycle Distribution G2/M (COLO205 cells [2]; 25 μM): 6.38 ± 1.05; Cell Cycle Distribution S (COLO205 cells [2]; 25 μM): 29.65 ± 1.61; Cell Cycle Distribution G0/G1 (COLO205 cells [2]; 50 μM): 64.90 ± 1.44; Cell Cycle Distribution G2/M (COLO205 cells [2]; 50 μM): 6.41 ± 0.13; Cell Cycle Distribution S (COLO205 cells [2]; 50 μM): 28.69 ± 1.57; Cell Cycle Distribution G0/G1 (COLO205 cells [2]; 100 μM): 62.39 ± 2.98; Cell Cycle Distribution G2/M (COLO205 cells [2]; 100 μM): 7.05 ± 0.13; Cell Cycle Distribution S (COLO205 cells [2]; 100 μM): 30.57 ± 2.84; AC50 (HT-29 cells): > 100 µM; AC50 (HL-60 cells [3]; HL-60 cells, read-out: Apoptosis-inducing AC50): > 100 µM; AC50 (AGS cells [4]; AGS cells): > 100 µM; AC50 (COLO205 cells [5]; COLO 205, COLO205 cells, read-out: Apoptosis-inducing AC50): > 100 µM; IC50 (HL-60 cells [6]; HL-60 cells, read-out: Antiproliferative IC50): > 100 µM; IC50 (AGS cells [7]; AGS cells): > 100 µM; IC50 (COLO205 cells [8]; COLO 205, COLO205 cells, read-out: Antiproliferative IC50): > 100 µM |
